Results as given in PubChem BioAssay (NCI).
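Protocol summary: plate cells (96-well), add compound at 5 concentrations, incubate 48 h, interpolate endpoints linearly. TGI: total growth inhibition.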

Key:
Test in all cases: inhibition of tumour cell growth, NCI panel, 48 h
NCI-H226 lung = system: NCI-H226 lung
HOP-62 NSCLC = system: HOP-62 NSCLC
HCT-116 colon = system: HCT-116 colon
A498 renal = system: A498 renal
M14 melanoma = system: M14 melanoma
OVCAR-5 ovarian = system: OVCAR-5 ovarian
RXF 393 renal = system: RXF 393 renal
SK-OV-3 ovarian = system: SK-OV-3 ovarian
MALME-3M melanoma = system: MALME-3M melanoma
UO-31 renal = system: UO-31 renal
HCT-15 colon = system: HCT-15 colon
ACHN renal = system: ACHN renal
SNB-75 CNS = system: SNB-75 CNS
UACC-62 melanoma = system: UACC-62 melanoma
NCI/ADR-RES ovarian = system: NCI/ADR-RES ovarian
HL-60(TB) leukemia = system: HL-60(TB) leukemia
RPMI-8226 leukemia = system: RPMI-8226 leukemia
UACC-257 melanoma = system: UACC-257 melanoma
SR leukemia = system: SR leukemia

| Structure (SMILES) | TGI (NCI-H226 lung) | TGI (HOP-62 NSCLC) | TGI (HCT-116 colon) | TGI (A498 renal) | TGI (M14 melanoma) | TGI (OVCAR-5 ovarian) | TGI (RXF 393 renal) | TGI (SK-OV-3 ovarian) | TGI (MALME-3M melanoma) | TGI (UO-31 renal) | TGI (HCT-15 colon) | TGI (ACHN renal) | TGI (SNB-75 CNS) | TGI (UACC-62 melanoma) | TGI (NCI/ADR-RES ovarian) | TGI (HL-60(TB) leukemia) | TGI (RPMI-8226 leukemia) | TGI (UACC-257 melanoma) | TGI (SR leukemia) |
| --- | --- | --- | --- | --- | --- | --- | --- | --- | --- | --- | --- | --- | --- | --- | --- | --- | --- | --- | --- |
| COc1cc2c(cc1OC)CC(=O)c1cc(OC)c(OC)cc1/C=C\2 | > 12.5 µM | > 12.5 µM | > 12.5 µM | > 12.5 µM | > 12.5 µM | > 12.5 µM | > 12.5 µM | > 12.5 µM | > 12.5 µM | > 12.5 µM | > 12.5 µM | > 12.5 µM | > 12.5 µM | > 12.5 µM | > 12.5 µM | 7.05 µM | > 12.5 µM | > 12.5 µM | – |
| CCN1CN(c2ccccc2)C2(CCN(CCCSc3ccc(F)cc3)CC2)C1=O | 33.7 µM | 12.6 µM | 14.9 µM | – | 21.6 µM | 20.5 µM | 25.7 µM | 33.2 µM | 36.1 µM | 18.1 µM | 24.9 µM | 24.1 µM | 30.1 µM | 30.2 µM | 28.2 µM | 26.6 µM | 46.8 µM | 17.1 µM | 36.5 µM |
| O=C(c1ccco1)n1c2ccc(Br)cc2c2nc3ccccc3nc21 | > 100 µM | 87 µM | > 100 µM | – | > 100 µM | > 100 µM | > 100 µM | – | > 100 µM | > 100 µM | > 100 µM | > 100 µM | 58.6 µM | > 100 µM | > 100 µM | > 100 µM | 54.6 µM | > 100 µM | > 100 µM |
| CC1=C(O)C(=O)C[C@]2(C)[C@H]3CC=C4[C@@H]5CC(C)(C)CC[C@@H]5C(=O)[C@H](O)[C@@]4(C)[C@]3(C)CC[C@@H]12 | > 50 µM | > 50 µM | > 50 µM | > 50 µM | > 50 µM | > 50 µM | 37.9 µM | > 50 µM | > 50 µM | > 50 µM | > 50 µM | > 50 µM | > 50 µM | > 50 µM | > 50 µM | > 50 µM | > 50 µM | > 50 µM | – |
| Cc1cnc(/N=c2\sc(C)cn2-c2ncc(C)s2)s1 | > 100 µM | > 100 µM | > 100 µM | – | > 100 µM | > 100 µM | > 100 µM | > 100 µM | > 100 µM | > 100 µM | > 100 µM | > 100 µM | > 100 µM | > 100 µM | > 100 µM | > 100 µM | > 100 µM | > 100 µM | > 100 µM |
| CCCCn1cnnc1NS(=O)(=O)c1cc(C)c(Cl)cc1SCC(=O)O | > 10 µM | > 10 µM | > 10 µM | > 10 µM | > 10 µM | > 10 µM | > 10 µM | > 10 µM | > 10 µM | > 10 µM | > 10 µM | > 10 µM | > 10 µM | > 10 µM | > 10 µM | > 10 µM | > 10 µM | > 10 µM | – |
| COc1cc(/C=C/C(=O)OC2C(O)C3CC(OC(=O)c4cc(OC)c(OC)c(OC)c4)CC2N3C)cc(OC)c1OC (centres undefined) | > 50 µM | > 50 µM | > 50 µM | 17.7 µM | > 50 µM | > 50 µM | > 50 µM | > 50 µM | – | > 50 µM | > 50 µM | > 50 µM | > 50 µM | > 50 µM | > 50 µM | – | > 50 µM | > 50 µM | 33.3 µM |
| C=C(C(=O)O)C1CCC(CC/C=C(\C)CC/C=C(\C)CCC=C(C)C)CO1 (centres undefined) | 13.1 µM | 55.6 µM | 17.8 µM | 54.4 µM | 25.5 µM | 35.7 µM | 29.6 µM | > 100 µM | 63 µM | 30 µM | 31.9 µM | > 100 µM | > 100 µM | > 100 µM | 81.8 µM | 69.4 µM | – | 52.9 µM | – |
| CC1(C)C2CCC(N)(C2)C1N (centres undefined) | > 100 µM | > 100 µM | > 100 µM | > 100 µM | > 100 µM | > 100 µM | > 100 µM | > 100 µM | – | > 100 µM | > 100 µM | > 100 µM | > 100 µM | > 100 µM | > 100 µM | > 100 µM | > 100 µM | > 100 µM | > 100 µM |
| COc1ccc(C(=O)c2sc(Nc3ccccc3)nc2N)cc1 | > 100 µM | > 80.2 µM | – | > 100 µM | > 100 µM | > 100 µM | > 100 µM | > 100 µM | > 100 µM | > 100 µM | > 100 µM | > 100 µM | – | > 100 µM | > 100 µM | – | > 100 µM | > 100 µM | > 100 µM |
| Cc1nc(-n2[nH]c(C)c(CCO)c2=O)[nH]c(=O)c1CCO | > 100 µM | > 100 µM | > 100 µM | > 100 µM | > 100 µM | – | > 100 µM | > 100 µM | – | > 100 µM | > 100 µM | > 100 µM | > 100 µM | > 100 µM | > 100 µM | > 100 µM | > 100 µM | > 100 µM | > 100 µM |
| NC1CC(N)c2c(Br)sc(Br)c21 (centres undefined) | > 100 µM | > 100 µM | > 100 µM | > 100 µM | > 100 µM | > 100 µM | – | > 100 µM | > 100 µM | > 100 µM | > 100 µM | > 100 µM | – | > 100 µM | > 100 µM | – | – | > 100 µM | > 100 µM |
| CC(=O)O[C@@H]1[C@H]2[C@@H](OC(=O)c3ccccc3)[C@@H](C)C[C@]2(O)[C@H](OC(C)=O)[C@@]2(C)[C@@H]3CC(C)(C)C(=O)[C@]3(OC(C)=O)C[C@@]12C | > 25 µM | > 25 µM | > 25 µM | > 25 µM | > 25 µM | > 25 µM | > 25 µM | > 25 µM | – | > 25 µM | > 25 µM | > 25 µM | > 25 µM | > 25 µM | > 25 µM | > 25 µM | – | > 25 µM | > 25 µM |
